≈ marks a conversion by molar mass, not a printed value.
Columns and labels:
Format in all cases: functional
Porphyromonas gingivalis = test: Antimicrobial activity against Porphyromonas gingivalis ATCC 33277 by disk diffusion method
Prevotella intermedia = test: Antimicrobial activity against Prevotella intermedia by disk diffusion method
Streptococcus mutans = test: Antimicrobial activity against Streptococcus mutans Ingbritt by disk diffusion method
Actinomyces viscosus = test: Antimicrobial activity against Actinomyces viscosus W1053 by disk diffusion method

SMILES	MIC (Porphyromonas gingivalis) [µg/mL]	MIC (Prevotella intermedia) [µg/mL]	MIC (Streptococcus mutans) [µg/mL]	MIC (Actinomyces viscosus) [µg/mL]
C[n+]1cc2c3c(ccc2c2ccc4cc5c(cc4c21)OCO5)OCO3 [SANGUINARIUM]	2	2	15	15
CC1(C)CC[C@]2(C(=O)O)CC[C@]3(C)C(=CC[C@@H]4[C@@]5(C)CC[C@H](O)C(C)(C)[C@@H]5CC[C@]43C)[C@@H]2C1 [OLEANOLIC_ACID]	625 (≈ 1370 µM)	1250 (≈ 2740 µM)	1250 (≈ 2740 µM)	625 (≈ 1370 µM)
O=C(O)c1cc(O)c(O)c(O)c1 [GALLIC ACID]	156 (≈ 917 µM)	78 (≈ 458 µM)	> 2500	78 (≈ 458 µM)
COc1cc(O)c2c(=O)c(O)c(-c3ccc(O)cc3)oc2c1 [RHAMNOCITRIN]	625 (≈ 2080 µM)	625 (≈ 2080 µM)	1250 (≈ 4160 µM)	1250 (≈ 4160 µM)
Cc1cc(=O)c2c(O)c([C@@H]3O[C@H](CO)[C@@H](O)[C@H](O)[C@H]3O)c(O)cc2o1 [BIFLORIN]	625 (≈ 1760 µM)	625 (≈ 1760 µM)	> 2500	> 2500

The remaining lines, values ahead:

MIC (Porphyromonas gingivalis) [µg/mL]	MIC (Prevotella intermedia) [µg/mL]	MIC (Streptococcus mutans) [µg/mL]	MIC (Actinomyces viscosus) [µg/mL]	SMILES
20 (≈ 69.9 µM)	20 (≈ 69.9 µM)	2500 (≈ 8730 µM)	1250 (≈ 4370 µM)	O=c1c(O)c(-c2ccc(O)cc2)oc2cc(O)cc(O)c12 [KAEMPFEROL]
1250 (≈ 4140 µM)	1250 (≈ 4140 µM)	1250 (≈ 4140 µM)	1250 (≈ 4140 µM)	O=c1oc2c(O)c(O)cc3c(=O)oc4c(O)c(O)cc1c4c23 [ELLAGIC ACID]
20 (≈ 62.8 µM)	20 (≈ 62.8 µM)	2500 (≈ 7860 µM)	1250 (≈ 3930 µM)	O=c1c(O)c(-c2cc(O)c(O)c(O)c2)oc2cc(O)cc(O)c12 [MYRICETIN]

— ChEMBL document CHEMBL1158297, “Compounds from Syzygium aromaticum possessing growth inhibitory activity against oral pathogens” (1996)
